Results on 26 molecules are retold here after patent publication US20090069300A1, “ISOQUINOLINYL AND ISOINDOLINYL DERIVATIVES AS HISTAMINE-3 ANTAGONISTS” (Wyeth, priority 2007, published 2009).

Structures can show the parent of a compound that is named as a salt.

`CCCNC(=O)c1ccc(-c2ccc3c(c2)CCN(CCN2CCCC2)C3=O)cc1` (as salt: hydrochloride): the melting point is 240 to 241 °C.

`C[C@@H]1CCCN1CCN1Cc2ccc(-c3ccc(F)cc3)cc2C1` (as salt: hydrochloride): the melting point lay within 250 to 251 °C.

As to `COC(=O)c1ccc(-c2ccc3c(c2)CCN(CCN2CCCC2)C3=O)cc1` (as salt: hydrochloride), the melting point was 118 to 120 °C.

`COc1ccc2c(c1)CCN(CCN1CCCC1)C2=O` (as salt: hydrochloride) came in with a melting point of 201 to 202 °C.

`COC(=O)c1ccc(Oc2ccc3c(c2)CCN(CCN2CCCC2)C3=O)cc1` (as salt: hydrochloride) showed a melting point of 215 to 216 °C.

`O=C1c2ccc(-c3cc(F)cc(F)c3)cc2CCN1CCN1CCCC1` (as salt: hydrochloride) [Example 10, 6-(3,5-difluorophenyl)-2-(2-pyrrolidin-1-ylethyl)-3,4-dihydroisoquinolin-1(2H)-one] displayed a melting point of 196 to 198 °C.

In turn, `O=C1c2ccc(-c3ccccc3F)cc2CCN1CCN1CCCC1` (as salt: hydrochloride) [Example 12, 6-(2-fluorophenyl)-2-(2-pyrrolidin-1-ylethyl)-3,4-dihydroisoquinolin-1(2H)-one] yielded a melting point of 211 to 213 °C.

Consider `O=C1c2ccc(-c3cccc(OC(F)(F)F)c3)cc2CCN1CCN1CCCC1` (as salt: hydrochloride) [Example 13, 2-(2-pyrrolidin-1-ylethyl)-6-[3-(trifluoromethoxy)phenyl]-3,4-dihydroisoquinolin-1(2H)-one], for which the melting point lay in the range of 135 to 137 °C.

`N#Cc1cccc(-c2ccc3c(c2)CCN(CCN2CCCC2)C3=O)c1` (as salt: hydrochloride) [Example 15, 3-[1-oxo-2-(2-pyrrolidin-1-ylethyl)-1,2,3,4-tetrahydroisoquinolin-6-yl]benzonitrile]: the melting point fell in the range of 204 to 206 °C.

In the case of `O=C1c2ccc(-c3ccccc3)cc2CCN1CCN1CCCC1` (as salt: hydrochloride) [Example 16, 6-phenyl-2-(2-pyrrolidin-1-ylethyl)-3,4-dihydroisoquinolin-1(2H)-one], the melting point is 218 to 220 °C.

`O=C1c2ccc(-c3ccc(F)c(F)c3)cc2CCN1CCN1CCCC1` (as salt: hydrochloride) [Example 17, 6-(3,4-difluorophenyl)-2-(2-pyrrolidin-1-ylethyl)-3,4-dihydroisoquinolin-1(2H)-one]: the melting point was in the range of 179 to 180 °C.

`O=C1c2ccc(-c3cccc(F)c3)cc2CCN1CCN1CCCC1` (as salt: hydrochloride) [Example 18, 6-(3-fluorophenyl)-2-(2-pyrrolidin-1-ylethyl)-3,4-dihydroisoquinolin-1(2H)-one] showed a melting point of 182 to 184 °C.

In the case of `N#Cc1ccc(-c2ccc3c(c2)CCN(CCN2CCCC2)C3=O)cc1` (as salt: hydrochloride) [Example 19, 4-[1-oxo-2-(2-pyrrolidin-1-ylethyl)-1,2,3,4-tetrahydroisoquinolin-6-yl]benzonitrile], the melting point was 249 to 251 °C.

For the molecule `O=C1c2ccc(-c3cccc(C(F)(F)F)c3)cc2CCN1CCN1CCCC1` (as salt: hydrochloride) [Example 20, 2-(2-pyrrolidin-1-ylethyl)-6-[3-(trifluoromethyl)phenyl]-3,4-dihydroisoquinolin-1(2H)-one], the melting point lay within 138 to 139 °C.

The molecule `O=C1c2ccc(-c3ccc4c(c3)OCO4)cc2CCN1CCN1CCCC1` (as salt: hydrochloride) [Example 21, 6-(1,3-benzodioxol-5-yl)-2-(2-pyrrolidin-1-ylethyl)-3,4-dihydroisoquinolin-1(2H)-one] came in with a melting point of 249 to 251 °C.

`O=C1c2ccc(-c3ccc(C(F)(F)F)cc3)cc2CCN1CCN1CCCC1` (as salt: hydrochloride) [Example 22, 2-(2-pyrrolidin-1-ylethyl)-6-[4-(trifluoromethyl)phenyl]-3,4-dihydroisoquinolin-1(2H)-one] gave a melting point of 243 to 244 °C.

On to `COc1ccc(-c2ccc3c(c2)CCN(CCN2CCCC2)C3=O)cc1` (as salt: hydrochloride) [Example 23, 6-(4-methoxyphenyl)-2-(2-pyrrolidin-1-ylethyl)-3,4-dihydroisoquinolin-1(2H)-one], for which the melting point was 224 to 225 °C.

The molecule `C[C@@H]1CCCN1CCN1CCc2c(cccc2-c2cccc(C#N)c2)C1=O` (as salt: hydrochloride) [Example 27, 3-(2-{2-[(2R)-2-methylpyrrolidin-1-yl]ethyl}-1-oxo-1,2,3,4-tetrahydroisoquinolin-5-yl)benzonitrile] came in with a melting point of 203 to 205 °C.

`N#Cc1cccc(-c2ccc3c(c2)CCN(CCCN2CCCC2)C3=O)c1` (as salt: hydrochloride) [Example 33, 3-[1-oxo-2-(3-pyrrolidin-1-ylpropyl)-1,2,3,4-tetrahydroisoquinolin-6-yl]benzonitrile] showed a melting point of 175 to 176 °C.

With `N#Cc1ccc2c(ccn2-c2ccc3c(c2)CCN(CCN2CCCC2)C3=O)c1` (as salt: hydrochloride) [Example 35, 1-[1-oxo-2-(2-pyrrolidin-1-ylethyl)-1,2,3,4-tetrahydroisoquinolin-6-yl]-1H-indole-5-carbonitrile Hydrochloride], the melting point was in the range of 215 to 217 °C.

Turning to `O=C1c2ccc(-n3cccn3)cc2CCN1CCN1CCCC1` (as salt: hydrochloride) [Example 37, 6-(1H-pyrazol-1-yl)-2-(2-(pyrrolidin-1-yl)ethyl)-3,4-dihydroisoquinolin-1(2H)-one hydrochloride], the melting point was 174 to 175 °C.

`O=C(c1ccc2c(c1)CCN(CCN1CCCC1)C2=O)N1CCCC1` (as salt: hydrochloride) [Example 38, 6-(pyrrolidin-1-ylcarbonyl)-2-(2-pyrrolidin-1-ylethyl)-3,4-dihydroisoquinolin-1(2H)-one hydrochloride] had a melting point of 194 to 196 °C.

On to `C[C@H]1CCCN1CCN1CCc2cc(-c3ccc(F)cc3)ccc2C1=O` (as salt: hydrochloride) [Example 39, 6-(4-fluorophenyl)-2-{2-[(2S)-2-methylpyrrolidin-1-yl]ethyl}-3,4-dihydroiso-quinolin-1(2H)-one hydrochloride], for which the melting point was in the range of 244 to 247 °C.

As to `C[C@@H]1CCCN1CCN1CCc2cc(-c3ccc(F)cc3)ccc2C1=O` (as salt: hydrochloride) [Example 40, 6-(4-fluorophenyl)-2-{2-[(2R)-2-methylpyrrolidin-1-yl]ethyl}-3,4-dihydroisoquinolin-1(2H)-one], the melting point lay within 236 to 238 °C.

The molecule `O=C1c2ccc(-c3ccc(F)cc3)cc2CCN1CCN1CCCCC1` (as salt: hydrochloride) [Example 43, 6-(4-fluorophenyl)-2-(2-piperidin-1-ylethyl)-3,4-dihydroiso-quinolin-1(2H)-one hydrochloride] registered a melting point of 241 to 243 °C.

In turn, `N#Cc1ccc(-c2ccc3c(c2)CCN(CCCN2CCCCC2)C3=O)cc1` (as salt: hydrochloride) [Example 45, 4-[1-oxo-2-(3-piperidin-1-ylpropyl)-1,2,3,4-tetrahydroisoquinolin-6-yl]benzonitrile hydrochloride] yielded a melting point of 249 to 250 °C.
